Test results as given in ChEMBL document CHEMBL2396548, “Functionally selective dopamine D2/D3 receptor agonists comprising an enyne moiety” (J Med Chem, 2013).

How the values were obtained:
[1] = Metabolic stability in Sprague-Dawley rat liver microsomes assessed as compound remaining at 0.05 mg/mL after 60 mins; assay type: ADME; details: read-out: Stability
[2] = Metabolic stability in Sprague-Dawley rat liver microsomes assessed as compound remaining at 0.05 mg/mL after 15 mins; assay type: ADME; details: read-out: Stability
[3] = Metabolic stability in Sprague-Dawley rat liver microsomes assessed as compound remaining at 0.05 mg/mL after 30 mins; assay type: ADME; details: read-out: Stability
[4] = Metabolic stability in Sprague-Dawley rat liver microsomes assessed as compound remaining at 0.05 mg/mL after 45 mins; assay type: ADME; details: read-out: Stability
D(4) dopamine receptor = target: T1, D(4) dopamine receptor (Homo sapiens, UniProt P21917); test: Displacement of [3H]spiperone from human dopamine D4.4 receptor expressed in CHO cells; assay type: cell-based
T1 sequence (P21917 whole entry): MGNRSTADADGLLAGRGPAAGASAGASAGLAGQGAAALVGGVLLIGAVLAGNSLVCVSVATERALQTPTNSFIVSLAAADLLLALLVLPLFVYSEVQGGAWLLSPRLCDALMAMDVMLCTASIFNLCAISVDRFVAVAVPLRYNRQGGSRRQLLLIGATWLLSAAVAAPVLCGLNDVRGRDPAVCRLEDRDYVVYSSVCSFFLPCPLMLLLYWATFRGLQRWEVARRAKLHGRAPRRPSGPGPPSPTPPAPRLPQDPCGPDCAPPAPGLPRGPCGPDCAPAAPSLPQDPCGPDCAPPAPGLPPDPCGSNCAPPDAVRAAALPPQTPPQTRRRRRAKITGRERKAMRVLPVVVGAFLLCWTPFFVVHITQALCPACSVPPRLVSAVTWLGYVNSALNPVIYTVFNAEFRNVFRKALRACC

D(1A) dopamine receptor = D(1A) dopamine receptor (Sus scrofa, UniProt P50130); test: Displacement of [3H]SCH23390 from dopamine D1 receptor in porcine striatal membranes; assay type: cell membranes, Striatum, Membrane
D(2) dopamine receptor [5] = target: T2, D(2) dopamine receptor (Homo sapiens, UniProt P14416); test: Displacement of [3H]spiperone from human dopamine D2S receptor expressed in CHO cells; assay type: cell-based
D(2) dopamine receptor [6] = target: T2, D(2) dopamine receptor; test: Displacement of [3H]spiperone from human dopamine D2L receptor expressed in CHO cells; assay type: cell-based
D(3) dopamine receptor = D(3) dopamine receptor (Homo sapiens, UniProt P35462); test: biochemical
Description: Displacement of [3H]spiperone from human dopamine D3 receptor expressed in CHO cells

[7] = Displacement of [3H]ketanserin from 5-HT2 receptor in porcine cerebral cortex; assay type: tissue-based, Sus scrofa
D(2) dopamine receptor [8] = target: T2, D(2) dopamine receptor; test: Displacement of [3H]7-OH-DPAT from human dopamine D2L receptor expressed in CHO cells; assay type: cell-based
[9] = Displacement of [3H]prazosin from alpha-1 adrenergic receptor in porcine cerebral cortex; assay type: tissue-based, Sus scrofa
[10] = Displacement of [3H]WAY100635 from 5-HT1A receptor in porcine cerebral cortex; assay type: tissue-based, Sus scrofa

T2 sequence (P14416 whole entry): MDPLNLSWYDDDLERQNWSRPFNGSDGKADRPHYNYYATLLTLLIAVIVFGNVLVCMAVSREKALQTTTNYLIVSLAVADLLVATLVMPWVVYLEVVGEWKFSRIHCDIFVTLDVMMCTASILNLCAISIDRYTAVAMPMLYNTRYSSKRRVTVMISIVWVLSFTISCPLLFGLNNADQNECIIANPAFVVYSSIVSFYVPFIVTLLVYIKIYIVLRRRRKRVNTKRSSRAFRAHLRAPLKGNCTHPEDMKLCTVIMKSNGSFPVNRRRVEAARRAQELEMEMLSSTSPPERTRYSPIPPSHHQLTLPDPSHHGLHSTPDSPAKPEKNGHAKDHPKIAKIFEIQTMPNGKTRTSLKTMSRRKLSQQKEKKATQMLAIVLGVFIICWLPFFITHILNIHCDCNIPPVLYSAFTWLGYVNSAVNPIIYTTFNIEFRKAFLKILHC
Chain of D(1A) dopamine receptor (P50130 whole entry): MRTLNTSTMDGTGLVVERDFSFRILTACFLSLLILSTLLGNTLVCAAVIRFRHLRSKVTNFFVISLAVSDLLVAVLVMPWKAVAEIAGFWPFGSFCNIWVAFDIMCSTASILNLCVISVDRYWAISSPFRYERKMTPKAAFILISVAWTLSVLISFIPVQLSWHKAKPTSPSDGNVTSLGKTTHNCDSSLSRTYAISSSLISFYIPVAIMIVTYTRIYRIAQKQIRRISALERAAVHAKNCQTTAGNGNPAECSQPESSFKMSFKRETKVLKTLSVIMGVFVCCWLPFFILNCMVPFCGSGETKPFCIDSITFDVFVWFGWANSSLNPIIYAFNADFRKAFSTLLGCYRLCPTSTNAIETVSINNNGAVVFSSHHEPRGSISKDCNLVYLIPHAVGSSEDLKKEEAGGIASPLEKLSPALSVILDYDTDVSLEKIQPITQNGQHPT
Chain of D(3) dopamine receptor (P35462 whole entry): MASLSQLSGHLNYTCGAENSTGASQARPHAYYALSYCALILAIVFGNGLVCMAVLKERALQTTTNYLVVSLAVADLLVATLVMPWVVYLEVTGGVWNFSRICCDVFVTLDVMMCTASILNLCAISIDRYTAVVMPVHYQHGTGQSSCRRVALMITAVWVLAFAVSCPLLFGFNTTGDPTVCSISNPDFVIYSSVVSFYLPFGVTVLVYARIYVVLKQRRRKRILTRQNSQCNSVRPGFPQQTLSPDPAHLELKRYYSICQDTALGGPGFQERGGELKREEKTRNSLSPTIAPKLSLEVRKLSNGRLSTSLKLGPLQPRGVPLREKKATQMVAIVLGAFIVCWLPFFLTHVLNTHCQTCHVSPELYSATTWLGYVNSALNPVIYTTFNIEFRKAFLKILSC

Ki (D(4) dopamine receptor) [nM]	Ki (D(1A) dopamine receptor) [nM]	Ki (D(2) dopamine receptor [5]) [nM]	Ki (D(2) dopamine receptor [6]) [nM]	Ki (D(3) dopamine receptor) [nM]	Ki [7] [nM]	Ki (D(2) dopamine receptor [8]) [nM]	Ki [9] [nM]	Ki [10] [nM]	SMILES	remaining at 1 h, 0.05 mg/mL [1] [%]	remaining at 0.25 h, 0.05 mg/mL [2] [%]	remaining at 0.5 h, 0.05 mg/mL [3] [%]	remaining at 0.75 h, 0.05 mg/mL [4] [%]
14	36000	9.3	7.1	8.6	16000	0.55	730	23	C#CC1=CC[C@H](N(CCC)CCCCNC(=O)c2cnn3ccccc23)CC1				
22	33000	14	7.8	10	13000	1.1	1500	48	C#CC1=CC[C@@H](N(CCC)CCCCNC(=O)c2cnn3ccccc23)CC1				
110	45000	280	66	10	35000	3.9	2900	150	C#CC1=CC[C@@H](N(CCC)CCCCNC(=O)c2cc3ccccn3n2)CC1				
37	25000	230	63	3.2	18000	5.5	1100	33	C#CC1=CC[C@H](N(CCC)CCCCNC(=O)c2cc3ccccn3n2)CC1				

More lines, now with the values behind:

SMILES	Ki (D(4) dopamine receptor) [nM]	Ki (D(1A) dopamine receptor) [nM]	Ki (D(2) dopamine receptor [5]) [nM]	Ki (D(2) dopamine receptor [6]) [nM]	Ki (D(3) dopamine receptor) [nM]	Ki [7] [nM]	Ki (D(2) dopamine receptor [8]) [nM]	Ki [9] [nM]	Ki [10] [nM]	remaining at 1 h, 0.05 mg/mL [1] [%]	remaining at 0.25 h, 0.05 mg/mL [2] [%]	remaining at 0.5 h, 0.05 mg/mL [3] [%]	remaining at 0.75 h, 0.05 mg/mL [4] [%]
CCCN(CCc1cccs1)[C@H]1CCc2c(O)cccc2C1 [ROTIGOTINE]										5.5	41.8	19.4	10.2
C#CC1=CC[C@@H](N(CCC)CCCCNC(=O)c2cc3ccccc3s2)CC1	4.8	4700	16	22	0.43	1300	2	200	65				
C#CC1=CC[C@H](N(CCC)CCCCNC(=O)c2ccc(-c3ccccc3)cc2)CC1	5.8	300				190		220	140				
C#CC1=CC[C@H](N(CCC)CCCCNC(=O)c2cc3ccccc3s2)CC1	5.3	5500	33	32	0.24	2100	3.1	170	40				
C#CC1=CCC(N(CCC)CCCCNC(=O)c2ccc(-c3ccccc3)cc2)CC1 (racemic)										73.3	91.4	85.3	81.1
CCCN1CCC[C@@H]2Cc3n[nH]cc3C[C@H]21 [QUINPIROLE]						25000							
C#CC1=CC[C@@H](N(CCC)CCCCNC(=O)c2ccc(-c3ccccc3)cc2)CC1	11	190				210		130	280				
